One test addresses human histamine H3 receptors (Homo sapiens (Human), UniProt Q9Y5N1). Description: Histamine H3 SPA with the agonist radioligand [3H]-N-α-methylhistamine (hH3 binding). The following applies: inhibition of [3H]-N-α-methylhistamine (1.4 nM) binding to CHO-K1 membranes expressing full-length human H3 (isoform 445). The procedure:
Histamine H3 SPA with the Agonist Radioligand [^3H]-N-α-Methylhistamine
The H3 binding assay was/can be used to evaluate the ability of at least one compound in accordance with formula I, Ia, Ib, and/or Ic to inhibit [^3H]-N-α-methylhistamine binding to CHO-K1 membranes expressing human histamine H3 receptors (full-length H3, the most prevalent brain isoform 445). In 200 μl 96-well SPA format, human H3 membranes (12.5 μg protein/well) and 1.4 nM [^3H]-N-α-methylhistamine were/can be incubated with at least one compound in accordance with formula I, Ia, Ib, and/or Ic for 1.5 hrs to determine percent effect with respect to total (1% DMSO) and non-specific binding (10 μM imetit). […] Single poke (SP) testing can be done in triplicate.
Membranes, prepared from CHO-K1 cells stably expressing the human histamine H3 receptor, can be obtained from ACS.
Tested formula I, Ia, Ib, and/or Ic compounds were/can be provided as solubilized samples in neat DMSO. Serial dilutions were/can be performed in DMSO.
Plates were/can be 96-well Unifilter GF/B (Perkin Elmer, 6005177). Plates were/can be read on a Perkin Elmer TopCount. CPM data was/can be used to analyze unless DPM data generated by a quench curve was/is required.
• 1. 1 mg/ml BSA was/can be added to assay buffer (AB) on day of assay. • 2. Amounts required for bead/membrane pool in AB were/can be calculated: “P”−need 17.1 ml/assay plate+10 ml PlateMate excess. Buffer volume was/can be split between beads and membranes to allow for polytroning of membranes prior to addition to beads. • a. […] A minimum of 15 minutes was/can be waited prior to adding membranes (See b. below). • b. Membranes (hH3 membranes from CHO cells containing recombinant human H3 receptors, 11.7 mg/ml): membranes were/can be removed from −80° C. and thawed in RT waterbath. (0.0702 mg/ml×P) mg of membranes were/can be resuspended in the remaining volume not used with beads above for 12.5 μg/well final and homogenized briefly at polytron speed 5.0. The homogenized membrane mixture was/can be combined with the beads and a minimum of 30 minutes was/can be waited prior to dispensing to plate. • 3. Formula I, Ia, Ib, and/or Ic compounds: For Single Poke, 2 μl mM of a compound in accordance with formula I, Ia, Ib, and/or Ic was/can be dispensed to Optiplates (triplicate plates) for final a concentration of 10 μM. […] Imetit (see below) was/can be used as a control. • 4. […] [^3H]-N-α-methylhistamine ([^3H]-NAMH): A solution in AB at 14 nM, 10× final concentration of 1.4 nM was/can be prepared. 5 μl samples were/can be calculated in quadruplicate on the 13 counter. If concentration was/is 12-14.5 nM, no adjustment was/is may be required. (For IC50s, use final concentration on calculation tab of ABase template.) Assay • 1. […] 2 μl of the formula I, Ia, Ib, and/or Ic compound dilution was/can be mixed and then transferred into assay plates. DMSO was/can be removed and 2 μl of 100 μM Imetit was/can be added to the wells. • 3. 178 μl bead/membrane mixture was/can be dispensed into the assay plate. • 4. 20 μl [^3H]-NAMH was/can be added with Rapid Plate. The assay plate was/can be sealed and incubated for 1.5 hr on RT shaker at speed ˜6.5. • 5. The assay plate was/can be subsequently centrifuged at 1000 rpm for 10 minutes. • 6. The count was/can be performed on TopCount using one of the 3H SPA H3 Quench programs.
The DPM data was/can be analyzed when tSIS was/is less than that associated with 70% of full scale on the quench curve (tSIS<25%). Otherwise, CPM data was/is used.
(§1) The IC50 and nH can be determined by fitting the data to model 205 in XLfit: y=A+((B−A)/(1+((C/x)^D)). Guanosine 5′-O-(3-[^35S]thio)triphosphate [GTPγS] Binding Assay
human Histamine H3 receptor (hH3R), sequence (Q9Y5N1 whole entry): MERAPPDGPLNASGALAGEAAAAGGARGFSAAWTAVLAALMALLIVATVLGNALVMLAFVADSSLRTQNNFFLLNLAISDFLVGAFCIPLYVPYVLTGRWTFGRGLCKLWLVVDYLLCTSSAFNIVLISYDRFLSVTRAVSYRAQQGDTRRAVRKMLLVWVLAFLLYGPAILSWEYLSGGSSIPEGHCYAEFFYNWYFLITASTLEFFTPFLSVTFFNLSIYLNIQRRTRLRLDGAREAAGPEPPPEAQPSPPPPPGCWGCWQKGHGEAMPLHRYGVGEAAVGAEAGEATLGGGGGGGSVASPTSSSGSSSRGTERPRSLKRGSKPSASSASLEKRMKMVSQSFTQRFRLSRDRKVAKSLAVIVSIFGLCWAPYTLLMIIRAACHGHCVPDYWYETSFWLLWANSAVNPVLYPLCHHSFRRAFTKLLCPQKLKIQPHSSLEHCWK
human histamine H3 receptors, sequence (Q9Y5N1 whole entry, canonical isoform): as the sequence (Q9Y5N1 whole entry) above
For `O=C([C@H]1C[C@@H]1c1ccccc1)N1CCN(C2CCCCC2)CC1` (relative stereo) [Example 2, trans-(4-Cyclohexylpiperazin-1-yl)-(2-phenyl-cyclopropyl)methanone], the IC50 came to 0.105 µM.

`O=C([C@H]1C[C@@H]1c1ccccc1)N1CCN(C2CCCCCC2)CC1` (relative stereo) [Example 3, trans-(4-Cycloheptylpiperazin-1-yl)-(2-phenylcyclopropyl)methanone]: the IC50 was found to be 4.16 µM.

For `O=C([C@H]1C[C@@H]1c1ccccc1)N1CCN(C2CCC2)CC1` (relative stereo) [Example 4, trans-(4-Cyclobutylpiperazin-1-yl)-(2-phenylcyclopropyl)methanone], the 50% inhibitory concentration (IC50) turned out to be 0.0064 µM.

`O=C([C@H]1C[C@@H]1c1ccccc1)N1CCN(C2CC2)CC1` (relative stereo) [Example 5, trans-(4-Cyclopropylpiperazin-1-yl)-(2-phenylcyclopropyl)methanone] gave a 50% inhibitory concentration (IC50) of 0.0447 µM.

For `O=C([C@H]1C[C@@H]1c1ccccc1)N1CCN(C2CCCC2)CC1` (relative stereo) [Example 6, trans-(4-Cyclopentylpiperazin-1-yl)-(2-phenylcyclopropyl)methanone], the IC50 is 0.014 µM.

With `O=C([C@H]1C[C@@H]1c1ccccc1)N1CCCN(C2CCC2)CC1` (relative stereo) [Example 8, trans-(4-Cyclobutyl-1,4-diazepan-1-yl)-(2-phenylcyclopropyl)methanone], the IC50 was found to be 0.00756 µM.

The molecule `CC(C)(C)N1CCN(C(=O)[C@H]2C[C@@H]2c2ccccc2)CC1` (relative stereo) [Example 9, trans-(4-tert-Butylpiperazin-1-yl)-(2-phenylcyclopropyl)methanone] had an IC50 of 0.0453 µM. This IC50 lies about 6-fold higher than the previous one.

`O=C([C@H]1C[C@@H]1c1ccc(Br)cc1)N1CCN(C2CCC2)CC1` (relative stereo) [Example 13, trans-[2-(4-Bromophenyl)cyclopropyl]-(4-cyclobutylpiperazin-1-yl)methanone] had an IC50 of 0.0133 µM.

As to `CN1CCN(c2ccc([C@H]3C[C@@H]3C(=O)N3CCN(C4CCC4)CC3)cc2)C1=O` (relative stereo) [Example 16, trans-1-{4-[2-(4-Cyclobutylpiperazine-1-carbonyl)cyclopropyl]phenyl}-3-methylimidazolidin-2-one], the IC50 was found to be 0.441 µM. Compared with the last molecule, the IC50 is about 33-fold higher.

For the molecule `CS(=O)(=O)Nc1ccc([C@H]2C[C@@H]2C(=O)N2CCN(C3CCC3)CC2)cc1` (relative stereo) [Example 18, trans-N-{4-[2-(4-Cyclobutylpiperazine-1-carbonyl)cyclopropyl]phenyl}methane-sulfonamide], the IC50 was 0.0625 µM.

Turning to `O=C([C@H]1C[C@@H]1c1ccc(N2CCCC2)cc1)N1CCN(C2CCC2)CC1` (relative stereo) [Example 19, trans-(4-cyclobutylpiperazin-1-yl) {-2-[4-(pyrrolidin-1-yl)phenyl]cyclopropyl}methanone], the IC50 was 0.351 µM.

Molecule `O=C([C@H]1C[C@@H]1c1ccc(C(F)(F)F)nc1)N1CCN(C2CCC2)CC1` (relative stereo) [Example 26, trans-(4-Cyclobutylpiperazin-1-yl)(2-(6-(trifluoromethyl)pyridin-3-yl)cyclopropyl)methanone] yielded an IC50 of 0.0883 µM.

`O=C([C@@H]1C[C@H]1c1ccc(F)cc1)N1CCN(C2CCC2)CC1` (relative stereo) [Example 27, trans-(4-Cyclobutylpiperazin-1-yl)-[2-(4-fluorophenyl)cyclopropyl]methanone] showed an IC50 of 0.0073 µM.

On to `O=C([C@@H]1C[C@H]1c1cccc(Br)c1)N1CCN(C2CCC2)CC1` (relative stereo) [Example 28, trans-[2-(3-Bromophenyl)cyclopropyl]-(4-cyclobutylpiperazin-1-yl)methanone], for which the IC50 turned out to be 0.00137 µM.

The molecule `N#Cc1cccc([C@@H]2C[C@H]2C(=O)N2CCN(C3CCC3)CC2)c1` (relative stereo) [Example 29, trans-3-[2-(4-cyclobutylpiperazine-1-carbonyl)cyclopropyl]benzonitrile] registered an IC50 of 0.000834 µM. Against the preceding molecule, the IC50 is about 1.6-fold lower.

A further test addresses human Histamine H3 receptor (hH3R) (Homo sapiens (Human), UniProt Q9Y5N1). Description: Guanosine 5'-O-(3-[35S]thio)triphosphate [GTPγS] binding assay. It counts as biochemical. The following applies: antagonist mode vs (R)-α-methyl histamine 30 nM; membranes from CHO cells expressing hH3R. The procedure:
as §1
A GTPγS binding assay can be used to investigate antagonist properties of compounds in CHO cells (Chinese Hamster Ovary) transfected with human Histamine H3 receptor (hH3R). Membranes from CHO cells expressing hH3R (10 μg/well) are diluted in GTPγS assay buffer (20 mM Hepes, 10 mM MgCl2, 100 mM NaCl, pH 7.4) and preincubated with saponine (3 μg/ml), GDP (10 μM) and PVT-WGA SPA beads (125 μg/well) (Amersham) for 30 minutes. To determine antagonist activity, (R)-α-methyl histamine (30 nM) is added in 96 well SPA plate with [^35S]GTPγS (0.2 nM) and various concentration of H3R antagonists. The GTPγS binding assay is started with addition of the mixture membrane/saponine/GDP and incubated for 90 minutes at room temperature. The amount of bound [^35S]GTPγS is determined by using the MicroBeta Trilux counter (PerkinElmer). The percentage of [^35S]GTPγS bound in each sample is calculated as a percentage of that bound control sample incubated in absence of H3 antagonist. Duplicate determinations are obtained for each concentration, and the data are analyzed using ExcelFit4 to obtain the IC50.
(In general: GTPγS resists hydrolysis and so accumulates on activated G proteins.)
The molecule `CS(=O)(=O)Nc1cccc([C@@H]2C[C@H]2C(=O)N2CCN(C3CCC3)CC2)c1` (relative stereo) [Example 30, trans-N-{3-[2-(4-Cyclobutylpiperazine-1-carbonyl)cyclopropyl]phenyl}methanesulfonamide] gave an IC50 of 0.00859 µM.

`NC(=O)c1cccc([C@@H]2C[C@H]2C(=O)N2CCN(C3CCC3)CC2)c1` (single isomer, unassigned; enantiomer 1) [Example 36, 3-((trans)-2-(4-cyclobutylpiperazine-1-carbonyl)cyclopropyl)benzamide, enantiomer 1] gave a half-maximal inhibitory concentration (IC50) of 0.00619 µM.

Molecule `O=C([C@@H]1C[C@H]1c1cccc(N2CCCC2=O)c1)N1CCN(C2CCC2)CC1` (single isomer, unassigned; enantiomer 1) [Example 38, 1-(3-((trans)-2-(4-cyclobutylpiperazine-1-carbonyl)cyclopropyl)phenyl)pyrrolidin-2-one, enantiomer 1] gave an IC50 of 0.0116 µM.

Take `O=C([C@@H]1C[C@H]1c1cccc(N2CCCCC2=O)c1)N1CCN(C2CCC2)CC1` (single isomer, unassigned; enantiomer 1) [Example 40, 1-(3-((trans)-2-(4-cyclobutylpiperazine-1-carbonyl)cyclopropyl)phenyl)piperidin-2-one, enantiomer 1]: the IC50 amounted to 0.0182 µM.

With `NC(=O)c1ccc([C@@H]2C[C@H]2C(=O)N2CCN(C3CCC3)CC2)cc1` (single isomer, unassigned; enantiomer 1) [Example 43, 4-((trans)-2-(4-cyclobutylpiperazine-1-carbonyl)cyclopropyl)benzamide, enantiomer 1], the 50% inhibitory concentration (IC50) stood at 0.00381 µM.

Take `NC(=O)c1cccc([C@@H]2C[C@H]2C(=O)N2CCN(C3CCC3)CC2)c1` (single isomer, unassigned; enantiomer 2) [Example 37, 3-((trans)-2-(4-cyclobutylpiperazine-1-Carbonyl)cyclopropyl)benzamide, enantiomer 2]: the IC50 was above 1.05 µM.

Turning to `O=C([C@@H]1C[C@H]1c1cccc(N2CCCC2=O)c1)N1CCN(C2CCC2)CC1` (single isomer, unassigned; enantiomer 2) [Example 39, 1-(3-((trans)-2-(4-cyclobutylpiperazine-1-carbonyl)cyclopropyl)phenyl)pyrrolidin-2-one, enantiomer 2], the IC50 was above 1.8 µM.

In general, IC50 refers to the point on the concentration scale where inhibition reaches its midpoint.
